Measured values published in patent US10328088B2, “Use of aminosalicylates in diarrhoea-predominent irritable bowel syndrome” (Salix Pharmaceuticals, Inc., priority 2004, dated 2019).

What was measured:
Type in all cases: in vivo, human
[1] = system: diarrhoea-predominant IBS; assay: Example 1: case of a person with severe diarrhoea-predominant IBS treated with balsalazide
Description: A person presented with a 7 year history of worsening diarrhoea (watery 6-12/day), urgency, cramping lower abdominal pain and at times faecal incontinence. There was no clear preceding illness nor antibiotic usage. They underwent numerous investigations, beginning with general practitioners ordering stool cultures, blood tests, ultrasound and CT scan examinations. With the passage of time they noticed that some foods caused worsening of symptoms, and was told by a naturopath that they suffered from a ‘food allergy’. […] They consulted a gastroenterologist and underwent endoscopic small bowel biopsy—where coeliac disease was excluded histologically—and colonoscopy with biopsy and further stool cultures. All tests being non-diagnostic, they were told they had severe, diarrhoea-predominant IBS. They continued on the restricted diet, and was referred for counselling and hypnotherapy. Over the next 6-12 months they progressively lost weight with only modest control of their symptoms by the diet. Within 2 weeks of commencing increasing doses of balsalazide from 1.5 gram to 3 grams per day, the stools progressively formed up, with frequency reducing to 1-2 formed stools per day. […] By 6 weeks of treatment they regained 7 kg in weight.

chronic IBS = assay: Example 2: case of a person with chronic IBS (diarrhoea with intervening constipation, diverticulosis) treated with balsalazide
Description: A person complained of greater than 20 years of diarrhoea with intervening constipation, abdominal bloating, pains, flatulence, and nausea with acid reflux. They had undergone several complete medical investigations including stool tests, blood tests, X-ray imaging and colonoscopic examinations, with negative findings apart from the presence of diverticulosis. Diagnosed as chronic IBS they tried increasing fibre intake, controlling stress, and changing their diet, all to no avail. On commencing balsalazide 1.5 g/day and pushing the dose upwards to 4.5 g/d their diarrhoea, pains, flatulence and nausea abated. At the higher dose the constipation also disappeared.

[2] = system: diarrhoea predominant Irritable Bowel Syndrome; assay: Example 3: case of a person with diarrhoea predominant Irritable Bowel Syndrome treated with Salofalk granules, then balsalazide
[3] = system: diarrhoea-predominant Irritable Bowel Syndrome; assay: Inventor's clinical experience in patients with diarrhoea-predominant IBS; conditions: from clinical experience
Description: Balsalazide is better than mesalazine (5-ASA) in controlling and may inhibit even more powerfully the symptoms of diarrhoea-predominant IBS and associated conditions enumerated below. This is unexpected. It was not expected that balsalazide would be capable of treating diarrhoea-predominant IBS as it is a very different molecule to the conventional 4ASA and 5ASA compounds. […] It is noted that the side chain together with the 5-ASA potentiates inhibition of gas production, cramping, fluid secretion, and mucus production. It appears the large side chain apart from the salicylate component is effective in treating diarrhoea. In addition, in a subgroup of patients the constipation component of IBS may respond to the same treatment.

[4] = balsalazide 1.5 gram to 3 grams per day

Q: Which pain [1, 4] does the source give for `O=C(O)CCNC(=O)c1ccc(/N=N/c2ccc(O)c(C(=O)O)c2)cc1` [balsalazide, 5[(1E)-[4-[[(2-carboxyethyl)amino]carbonyl]phenyl]azo]-2-hydroxybenzoic acid] here?
A: completely abolished

Q: And the urgency [1, 4]?
A: disappaeared

Q: What about the weight regained ([1]; by 6 weeks of treatment) of the same compound?
A: 7 kg

Q: And the “symptom status at follow up” value ([1]; on balsalazide at 26 weeks)?
A: virtually completely symptom-free

Q: And the stool frequency ([1]; within 2 weeks of increasing doses from 1.5 gram to 3 grams per day, baseline watery 6-12/day)?
A: 1-2 formed stools per day

Q: What about the durability of improvements (chronic IBS; at 26 weeks) of the same compound?
A: remain sustained

Q: And the constipation (chronic IBS; at the higher dose (4.5 g/d))?
A: disappeared

Q: And the “diarrhoea, pains, flatulence and nausea” value (chronic IBS; balsalazide 1.5 g/day pushed upwards to 4.5 g/d)?
A: abated

Q: What about the improvement in symptoms ([2]; 750 mg twice daily slowly raised to 1.5 grams twice daily) of the same compound?
A: dramatic

Q: What about the stool frequency ([2]; 3 grams twice daily) of the same compound?
A: two

Q: And the symptoms ([2]; 3 grams twice daily)?
A: largely disappeared

Q: And the urgency or flatulence ([2]; 3 grams twice daily)?
A: without any urgency or flatulence

Q: And the durability of improvements ([2]; at four months follow up)?
A: sustained

Q: And the “suppression of symptoms of diarrhoea-predominant Irritable Bowel Syndrome compared with conventional 4ASA and 5ASA compounds” value [3]?
A: much more powerful
